According to patent US8835458B2 (Hanmi Science Co., Ltd, priority 2010, dated 2014):
Where a name gives a salt, the structure may show the parent alone. Read-outs that look alike come from different tables or passages of the source.

Experiments:
[1] = Toxicity to normal cells (SRB); format: cell-based, mouse; settings: mouse, Balb/c3t3 fibroblasts (normal cell line), read-out: BalB/C (GI50)
Description: MDA-MB-231 breast cancer cell lines (ATCC #HTB-26) and BxPC-3 pancreas cancer cell lines (ATCC #CRL 1687), which have been reported to express XIAP, were obtained from ATCC (American type culture collection; Rockville, Md.). MDA-MB-231 cell lines were incubated in L-15 medium supplemented with 10% FBS and 1% penicillin/streptomycin (Gibco BRL) at a T-75 cm^2 growth flask. In addition, BxPC-3 cell lines were incubated in RPMI medium supplemented with 10% FBS and 1% penicillin/streptomycin. For experiments of toxicity to normal cells, fibroblasts Hs27 (ATCC #CRL 1634) and Balb/c3t3 (ATCC #CCL 163) were used. The various cell lines were transferred into 96-well plates at a density of 3,000˜5,000 cells/100 μL, and cultured for 24 hours under conditions of 37° C., 5% CO2, 95% air, and 100% relative humidity (MDA-MB-231 cells were cultured under atmospheric conditions). The cells were treated with 10 μM˜0.1 nM of test compounds, and MDA-MB-231, BxPC-3, and normal cell lines were cultured for 120, 96, and 72 hours, respectively.
Cell viabilities of MDA-MB-231 cell lines were measured at an absorbance of 490 nm using CellTiter 96™ AQueous One Solution Cell proliferation Assay (MTS, Promega), and cell viabilities of BxPC-3 and normal cell lines were measured by fixing cells with 10% TCA (trichloroacetic acid), staining with SRB (sulforhodamine B), and measuring at 540 nm. From the values, GI50 values in which test compounds reduce the growth of cancer cells by 50% were calculated. The growth rates of cancer cells were calculated from following Equation 1 or 2. [(Ti−Tz)/(C−Tz)]×100 (for Ti>=Tz) [Equation 1] [(Ti−Tz)/Tz]×100 (for Ti<Tz) [Equation 2] In Equations 1 and 2, Tz refers to a density of untreated cells, which is an absorbance in 0% cell growth groups. C refers to a density of cells cultured by adding only medium, and Ti refers to a density of cells treated with test compounds.
GI50 value is the concentration of a test compound when the value of Equation 1 is 50, which indicates the concentration of test compound required to inhibit the cancer cells by 50%. On each measurement, test compounds were compared with a control.
The activity value of each compound (GI50 value) was shown in Table 5, and an IAP antagonist was used as a control.
In the activity measurement on MDA-MB-231 breast cancer cell lines, the values were represented as “***” for 100 nM or less, “**” for over 100 nM to below 1,000 nM, and “*” for 1,000 nM or more. In the measurement on normal cell lines, Balb/C and Hs27, the values were represented as “+++” for 10,000 nM or more, “++” for over 5,000 nM to below 10,000 nM, and “+” for 5,000 nM or less.

[2] = tested on: MDA-MB-231 breast cancer cell lines; test: Evaluation of inhibition on cell growth (MTS); format: cell-based; settings: Homo sapiens, MDA-MB-231, 120 hours
Method in brief: (§1)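 GI50 values come from growth equations comparing treated, untreated and medium-only wells. Fibroblasts (Hs27, Balb/c3t3) got 72 h compound exposure with SRB read-out at 540 nm after TCA fixing. MDA-MB-231 got 120 h with MTS at 490 nm, across 10 μM˜0.1 nM.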

[3] = Toxicity to normal cells (SRB); format: cell-based, human; settings: human, Hs27 fibroblasts (normal cell line)
Method in brief: as §1

SMILES	GI50 at 72 h [1]	GI50 [2]	GI50 at 72 h [3]
CN[C@@H](C)C(=O)N[C@H](C(=O)N1CCC[C@H]1C(=O)Nc1cc2c(N3CCCCC3)ncnc2cc1OC)C(C)(C)C [Example 24, (S)-1-((S)-3,3-dimethyl-2-((S)-2-(methylamino)propanamido)butanoyl)-N-(7-methoxy-4-(piperidin-1-yl)quinazolin-6-yl)pyrrolidine-2-carboxamide hydrochloride]	> 10 µM	≤ 0.1 µM	> 10 µM
CN[C@@H](C)C(=O)N[C@H](C(=O)N1CCCC[C@H]1C(=O)Nc1cc2c(Nc3ccc(F)c(Cl)c3F)ncnc2cc1OC)C(C)(C)C [Example 25]	> 10 µM	0.1 to 1 µM	> 10 µM
CN[C@@H](C)C(=O)N[C@H](C(=O)N1CCC[C@H]1C(=O)Nc1cc2c(Nc3ccccc3C)ncnc2cc1OC)C(C)(C)C [Example 27, (S)—N-(4-(o-toluidino)-7-methoxyquinazolin-6-yl)-1-((S)-3,3-dimethyl-2-((S)-2-(methylamino)propanamido)butanoyl)pyrrolidine-2-carboxamide hydrochloride]	> 10 µM	≤ 0.1 µM	> 10 µM
CN[C@@H](C)C(=O)N[C@H](C(=O)N1CCC[C@H]1C(=O)Nc1cc2c(Nc3ccc(F)cc3F)ncnc2cc1OC)C(C)(C)C [Example 28, (S)—N-(4-(2,4-difluorophenylamino)-7-methoxyquinazolin-6-yl)-1-((S)-3,3-dimethyl-2-((S)-2-(methylamino)propanamido)butanoyl)pyrrolidine-2-carboxamide hydrochloride]	> 10 µM	≤ 0.1 µM	> 10 µM
CN[C@@H](C)C(=O)N[C@H](C(=O)N1CCC[C@H]1C(=O)Nc1cc2c(Nc3ccc(Cl)cc3F)ncnc2cc1OC)C(C)(C)C [Example 29, (S)—N-(4-(4-chloro-2-fluorophenylamino)-7-methoxyquinazolin-6-yl)-1-((S)-3,3-dimethyl-2-((S)-2-(methylamino)propanamido)butanoyl)pyrrolidine-2-carboxamide hydrochloride]	> 10 µM	≤ 0.1 µM	> 10 µM
CN[C@@H](C)C(=O)N[C@H](C(=O)N1CCC[C@H]1C(=O)Nc1cc2c(Nc3ccccc3OC)ncnc2cc1OC)C(C)(C)C [Example 30, (S)—N-(4-(2-methoxyphenylamino)-7-methoxyquinazolin-6-yl)-1-((S)-3,3-dimethyl-2-((S)-2-(methylamino)propanamido)butanoyl)pyrrolidine-2-carboxamide hydrochloride]	> 10 µM	≤ 0.1 µM	> 10 µM
CN[C@@H](C)C(=O)N[C@H](C(=O)N1CCC[C@H]1C(=O)Nc1cc2c(N(C)c3ccccc3)ncnc2cc1OC)C(C)(C)C [Example 31, (S)-1-((S)-3,3-dimethyl-2-((S)-2-(methylamino)propanamido)butanoyl)-N-(7-methoxy-4-(methyl(phenyl)amino)quinazolin-6-yl)pyrrolidine-2-carboxamide hydrochloride]	> 10 µM	≤ 0.1 µM	> 10 µM
CN[C@@H](C)C(=O)N[C@H](C(=O)N1CCC[C@H]1C(=O)Nc1cc2c(Nc3ccc4ccccc4c3)ncnc2cc1OC)C(C)(C)C [Example 32, (S)-1-((S)-3,3-dimethyl-2-((S)-2-(methylamino)propanamido)butanoyl)-N-(7-methoxy-4-(naphthalen-2-ylamino)quinazolin-6-yl)pyrrolidine-2-carboxamide]	> 10 µM	≤ 0.1 µM	> 10 µM
CN[C@@H](C)C(=O)N[C@H](C(=O)N1CCC[C@H]1C(=O)Nc1cc2c(Nc3ccccn3)ncnc2cc1OC)C(C)(C)C [Example 33, (S)-1-((S)-3,3-dimethyl-2-((S)-2-(methylamino)propanamido)butanoyl)-N-(7-methoxy-4-(pyridin-2-ylamino)quinazolin-6-yl)pyrrolidine-2-carboxamide]	> 10 µM	≤ 0.1 µM	> 10 µM
CN[C@@H](C)C(=O)N[C@H](C(=O)N1CCC[C@H]1C(=O)Nc1cc2c(N[C@@H](C)c3ccccc3)ncnc2cc1OC)C(C)(C)C [Example 34, (S)-1-((S)-3,3-dimethyl-2-((S)-2-(methylamino)propanamido)butanoyl)-N-(7-methoxy-4-((S)-1-phenylmethylamino)quinazolin-6-yl)pyrrolidine-2-carboxamide hydrochloride]	> 10 µM	≤ 0.1 µM	> 10 µM
CN[C@@H](C)C(=O)N[C@H](C(=O)N1CCC[C@H]1C(=O)Nc1cc2c(NCc3ccc(F)cc3F)ncnc2cc1OC)C(C)(C)C [Example 35, (S)—N-(4-(2,4-difluorobenzylamino)-7-methoxyquinazolin-6-yl)-1-((S)-3,3-dimethyl-2-((S)-2-(methylamino)propanamido)butanoyl)pyrrolidine-2-carboxamide hydrochloride]	> 10 µM	≤ 0.1 µM	> 10 µM
CN[C@@H](C)C(=O)N[C@H](C(=O)N1CCC[C@H]1C(=O)Nc1cc2c(N)ncnc2cc1OC)C(C)(C)C [Example 36, (S)—N-(4-amino-7-methoxyquinazolin-6-yl)-1-((S)-3,3-dimethyl-2-((S)-2-(methylamino)propanamido)butanoyl)pyrrolidine-2-carboxamide]	> 10 µM	0.1 to 1 µM	> 10 µM
CN[C@@H](C)C(=O)N[C@H](C(=O)N1CCC[C@H]1C(=O)Nc1cc2c(Nc3ccc(OCc4cccc(F)c4)c(Cl)c3)ncnc2cc1OC)C(C)(C)C [Example 37, (S)—N-(4-(3-chloro-4-(3-fluorobenzyloxy)phenylamino)-7-methoxyquinazolin-6-yl)-1-((S)-3,3-dimethyl-2-((S)-2-(methylamino)propanamido)butanoyl)pyrrolidine-2-carboxamide hydrochloride]	> 10 µM	≤ 0.1 µM	> 10 µM
CN[C@@H](C)C(=O)N[C@H](C(=O)N1CCC[C@H]1C(=O)Nc1cc2c(NC3CCCCC3)ncnc2cc1OC)C(C)(C)C [Example 38, (S)—N-(4-(cyclohexylamino)-7-methoxyquinazolin-6-yl)-1-((S)-3,3-dimethyl-2-((S)-2-(methylamino)propanamido)butanoyl)pyrrolidine-2-carboxamide hydrochloride]	> 10 µM	≤ 0.1 µM	> 10 µM
CN[C@@H](C)C(=O)N[C@H](C(=O)N1CCC[C@H]1C(=O)Nc1cc2c(Nc3ccc(-c4ccccc4)cc3)ncnc2cc1OC)C(C)(C)C [Example 39, (S)—N-(4-(biphenyl-4-ylamino)-7-methoxyquinazolin-6-yl)-1-((S)-3,3-dimethyl-2-((S)-2-(methylamino)propanamido)butanoyl)pyrrolidine-2-carboxamide hydrochloride]	> 10 µM	≤ 0.1 µM	> 10 µM
CN[C@@H](C)C(=O)N[C@H](C(=O)N1CCC[C@H]1C(=O)Nc1cc2c(Nc3ccc(Oc4ccccc4)cc3)ncnc2cc1OC)C(C)(C)C [Example 40, (S)-1-((S)-3,3-dimethyl-2-((S)-2-(methylamino)propanamido)butanoyl)-N-(7-methoxy-4-(4-phenoxyphenylamino)quinazolin-6-yl)pyrrolidine-2-carboxamide hydrochloride]	> 10 µM	≤ 0.1 µM	> 10 µM
CN[C@@H](C)C(=O)N[C@H](C(=O)N1CCC[C@H]1C(=O)Nc1cc2c(Nc3ccc(F)c(Cl)c3)ncnc2cc1OC)C(C)(C)C [Example 41, (S)—N-(4-(3-chloro-4-fluorophenylamino)-7-methoxyquinazolin-6-yl)-1-((S)-3,3-dimethyl-2-((S)-2-(methylamino)propanamido)butanoyl)pyrrolidine-2-carboxamide hydrochloride]	> 10 µM	≤ 0.1 µM	> 10 µM
